Earlier results, collected in PMC9227077, “Prediction Models for Brain Distribution of Drugs Based on Biomimetic Chromatographic Data” (Molecules, 2022).
Read-outs that look alike come from different tables or passages of the source.

Legend:
[1] = parameters: method as in ref 23, 24, 27, 29, 45 (a number printed in a supplementary file, which may have a reference list of its own: not looked up in the article's list); conditions: 100% aqueous mobile phase, previously obtained in authors' laboratory, cited from earlier work
human serum albumin = test system: human serum albumin; parameters: method as in ref 45 (a number printed in a supplementary file, which may have a reference list of its own: not looked up in the article's list); conditions: pH=7.4, isocratic, 10% acetonitrile; available for 37 compounds, remaining calculated by equation; cited from earlier work
[2] = experimental, cited from earlier work; for logP: octanol-water partition coefficient
[3] = cited from earlier work; for logBB exper.: literature Kp,brain converted to logBB; for Kp,brain: total brain/total plasma, preferably rat studies
[4] = most values in rats, average if more than one value; cited from earlier work

CC(=O)Oc1ccccc1C(=O)O [Acetylsalicylic acid]
logkw IAM ([1]; pH=5.0, PBS): -0.48 | logkw IAM ([1]; pH=7.4, PBS): -0.81 | logk10,HSA (human serum albumin): 0.38 | logD ([2]; pH=5.0, octanol-water): -0.29 | logD ([2]; pH=7.4, octanol-water): -1.20 | logBB exper. [3]: -0.5 | Kp,brain [3]: 0.32

Nc1nc2c(ncn2COCCO)c(=O)[nH]1 [Acyclovir]
logkw IAM ([1]; pH=5.0, PBS): -1.37 | logkw IAM ([1]; pH=7.4, PBS): -1.15 | logP [2]: -1.56 | logD ([2]; pH=5.0, octanol-water): -1.56 | logD ([2]; pH=7.4, octanol-water): -1.56

Cc1c(N(C)C)c(=O)n(-c2ccccc2)n1C [Aminopyrine]
logk10,HSA (human serum albumin): -0.30 | logBB exper. [3]: 0.00 | Kp,brain [3]: 1.00

CC(C)NCC(O)COc1ccc(CC(N)=O)cc1 (centres unmarked) [Atenolol]
logkw IAM ([1]; pH=5.0, PBS): -0.20 | logkw IAM ([1]; pH=7.4, PBS): 0.51

CN1[C@@H]2CC[C@H]1C[C@@H](OC(=O)C(CO)c1ccccc1)C2 (some centres unmarked) [Atropine]
logkw IAM ([1]; pH=7.4, PBS): 1.05

CN1C(=O)CN=C(c2ccccc2)c2cc(Cl)ccc21 [Diazepam]
logkw IAM ([1]; pH=5.0, PBS): 2.12 | logkw IAM ([1]; pH=7.4, PBS): 2.12

O=C(CCCN1CCC(O)(c2ccc(Cl)cc2)CC1)c1ccc(F)cc1 [Haloperidol]
logkw IAM ([1]; pH=5.0, PBS): 1.86 | logkw IAM ([1]; pH=7.4, PBS): 2.65 | fu,brain [4]: 0.008 | logk10,HSA (human serum albumin): 0.77

OCCOCCN1CCN(C(c2ccccc2)c2ccc(Cl)cc2)CC1 (centres unmarked) [Hydroxyzine]
logkw IAM ([1]; pH=5.0, PBS): 2.23 | logkw IAM ([1]; pH=7.4, PBS): 3.01 | fu,brain [4]: 0.013 | logk10,HSA (human serum albumin): 0.60 | logD ([2]; pH=5.0, octanol-water): 0.73 | logD ([2]; pH=7.4, octanol-water): 3.01 | logBB exper. [3]: 0.39 | Kp,brain [3]: 2.45

CN(C)CCCN1c2ccccc2CCc2ccccc21 [Imipramine]
logkw IAM ([1]; pH=5.0, PBS): 2.05 | logkw IAM ([1]; pH=7.4, PBS): 2.73 | fu,brain [4]: 0.035 | logBB exper. [3]: 0.83 | Kp,brain [3]: 6.76

CNCCCC12CCC(c3ccccc31)c1ccccc12 [Maprotiline]
logkw IAM ([1]; pH=5.0, PBS): 2.25 | logkw IAM ([1]; pH=7.4, PBS): 2.81 | fu,brain [4]: 0.006 | logk10,HSA (human serum albumin): 0.80 | logP [2]: 4.14 | logD ([2]; pH=5.0, octanol-water): 1.19 | logD ([2]; pH=7.4, octanol-water): 1.44 | logBB exper. [3]: 1.76 | Kp,brain [3]: 57.54

CN1CC[C@]23c4c5ccc(O)c4O[C@H]2[C@@H](O)C=C[C@H]3[C@H]1C5 [Morphine]
logkw IAM ([1]; pH=5.0, PBS): 0.10 | logkw IAM ([1]; pH=7.4, PBS): 0.63

COc1ccc2cc([C@H](C)C(=O)O)ccc2c1 [Naproxen]
logkw IAM ([1]; pH=5.0, PBS): 1.71 | logkw IAM ([1]; pH=7.4, PBS): 0.98

CC(C)=CCN1CCC2(C)c3cc(O)ccc3CC1C2C (centres unmarked) [Pentazocine]
logkw IAM ([1]; pH=5.0, PBS): 1.70 | logkw IAM ([1]; pH=7.4, PBS): 2.06 | logk10,HSA (human serum albumin): 1.09 | logP [2]: 4.64 | logD ([2]; pH=5.0, octanol-water): 1.24 | logD ([2]; pH=7.4, octanol-water): 4.02 | logBB exper. [3]: 0.545 | Kp,brain [3]: 3.51

CC(C)NCC(O)COc1cccc2[nH]ccc12 (centres unmarked) [Pindolol]
fu,brain [4]: 0.400 | logk10,HSA (human serum albumin): -0.03 | logD ([2]; pH=5.0, octanol-water): -1.15 | logD ([2]; pH=7.4, octanol-water): -0.21 | logBB exper. [3]: -0.14 | Kp,brain [3]: 0.72

NC(=O)CN1CCCC1=O [Piracetam]
logk10,HSA (human serum albumin): -1.32 | logD ([2]; pH=5.0, octanol-water): -1.54 | logD ([2]; pH=7.4, octanol-water): -1.54 | Kp,brain [3]: 1.00

CC(=O)[C@H]1CC[C@H]2[C@@H]3CCC4=CC(=O)CC[C@]4(C)[C@H]3CC[C@]12C [Progesterone]
logkw IAM ([1]; pH=7.4, PBS): 3.06 | fu,brain [4]: 0.046 | logk10,HSA (human serum albumin): 0.84 | logD ([2]; pH=5.0, octanol-water): 3.89 | logD ([2]; pH=7.4, octanol-water): 3.48

CN1[C@@H]2C[C@@H](OC(=O)[C@H](CO)c3ccccc3)C[C@H]1[C@@H]1O[C@@H]12 [Scopolamine]
logkw IAM ([1]; pH=5.0, PBS): 0.73 | logkw IAM ([1]; pH=7.4, PBS): 1.15

CN1C(=O)C(O)N=C(c2ccccc2)c2cc(Cl)ccc21 (centres unmarked) [Temazapam]
logkw IAM ([1]; pH=5.0, PBS): 1.76 | logkw IAM ([1]; pH=7.4, PBS): 1.76 | logk10,HSA (human serum albumin): 0.28

Cn1c(=O)c2[nH]cnc2n(C)c1=O [Theophylline]
logkw IAM ([1]; pH=5.0, PBS): -0.26 | logkw IAM ([1]; pH=7.4, PBS): -0.08
